Experimental data from US8476197B2, “Aminopropenoates as fungicides” (priority 2009, dated 2013).
Marks after values point to notes of the source that are not given here.

conditions: pH 2.7

SMILES | Log P
COC(=O)C(C#N)=C(NC1(c2c(F)cccc2F)CC1)c1cccnc1Cl [Compound 380] | 2.8^[a]
COC(=O)C(C#N)=C(NC(c1ccc(Cl)cc1)C1CC1)c1cccnc1Cl (stereo not drawn) [Compound 381] | 3.58^[a]
COC(=O)C(C#N)=C(NC1(c2ccccc2Cl)CC1)c1cccnc1Cl [Compound 382] | 2.61^[a]
COC(=O)C(C#N)=C(NC1(c2cccc(Cl)c2)CC1)c1cccnc1Cl [Compound 383] | 3.11^[a]
COC(=O)C(C#N)=C(NC1(c2ccc(Cl)cc2)CC1)c1cccnc1Cl [Compound 384] | 3.19^[a]
COC(=O)C(C#N)=C(NC(C)(C)c1c(F)cccc1F)c1cccnc1Cl [Compound 385] | 2.98^[a]
COC(=O)C(C#N)=C(NC(C)(C)c1ccc(OC)cc1)c1cccnc1Cl [Compound 386] | 3.02^[a]
COC(=O)C(C#N)=C(NC(C)c1ccc(Cl)c(Cl)c1)c1cccnc1Cl (stereo not drawn) [Compound 387] | 3.58^[a]
COC(=O)C(C#N)=C(NC(C)c1cc(Cl)cc(Cl)c1)c1cccnc1Cl (stereo not drawn) [Compound 388] | 3.68^[a]
COC(=O)C(C#N)=C(NC(CC(F)(F)F)c1ccccc1)c1cccnc1Cl (stereo not drawn) [Compound 389] | 2.98^[a]
COC(=O)C(C#N)=C(NC(c1cccc(Cl)c1)C1CC1)c1cccnc1Cl (stereo not drawn) [Compound 390] | 2.93^[a]
CCC(NC(=C(C#N)C(=O)OC)c1cccnc1Cl)c1ccccc1OC (stereo not drawn) [Compound 391] | 3.15^[a]
COC(=O)C(C#N)=C(NC(C)c1ccccc1OC)c1cccnc1Cl (stereo not drawn) [Compound 392] | 2.84^[a]
COC(=O)C(C#N)=C(NC(C)(C)c1ccccc1Cl)c1cccnc1Cl [Compound 393] | 3.15^[a]
COC(=O)C(C#N)=C(NC(C)c1cc(Cl)ccc1Cl)c1cccnc1Cl (stereo not drawn) [Compound 394] | 3.28^[a]
COC(=O)C(C#N)=C(NC(C)c1ccc(C(F)(F)F)cc1)c1cccnc1Cl (stereo not drawn) [Compound 395] | 3.37^[a]
COC(=O)C(C#N)=C(NC(C)c1cccc(C)c1)c1cccnc1Cl (stereo not drawn) [Compound 396] | 3.02^[a]
COC(=O)C(C#N)=C(NC(C)c1ccc(F)cc1)c1cccnc1Cl (stereo not drawn) [Compound 397] | 2.89^[a]
COC(=O)C(C#N)=C(NC(c1ccccc1)C1CC1)c1cccnc1Cl (stereo not drawn) [Compound 398] | 3.24^[a]
COC(=O)C(C#N)=C(NC(C)(C)c1ccc(F)cc1)c1cccnc1Cl [Compound 399] | 2.98^[a]
COC(=O)C(C#N)=C(NC(C)c1ccc(OC)c(OC)c1)c1cccnc1Cl (stereo not drawn) [Compound 400] | 2.34^[a]
COC(=O)C(C#N)=C(NC(C)c1cccc(C(F)(F)F)c1)c1cccnc1Cl (stereo not drawn) [Compound 401] | 3.28^[a]
COC(=O)C(C#N)=C(NC(C)c1ccc2c(c1)OCO2)c1cccnc1Cl (stereo not drawn) [Compound 402] | 2.53^[a]
COC(=O)C(C#N)=C(NC(C)c1cccc(Cl)c1)c1cccnc1Cl (stereo not drawn) [Compound 403] | 3.19^[a]
COC(=O)C(C#N)=C(NC(C)c1ccccc1)c1cccnc1Cl (stereo not drawn) [Compound 404] | 2.89^[a]
CCC(NC(=C(C#N)C(=O)OC)c1cccnc1Cl)c1ccccc1 (stereo not drawn) [Compound 405] | 3.02^[a]
COC(=O)C(C#N)=C(NC(C)c1ccc(C(C)(C)C)cc1)c1cccnc1Cl (stereo not drawn) [Compound 406] | 4.23^[a]

SMILES | Log P
CCc1ccc(C(C)NC(=C(C#N)C(=O)OC)c2cccnc2Cl)cc1 (stereo not drawn) [Compound 407] | 3.63^[a]
COC(=O)C(C#N)=C(NC(C)c1ccc(OC)cc1)c1cccnc1Cl (stereo not drawn) [Compound 408] | 2.65^[a]
COC(=O)C(C#N)=C(NC(C)c1ccc(C)cc1)c1cccnc1Cl (stereo not drawn) [Compound 409] | 3.28^[a]
CCOC(=O)C(C#N)=C(Nc1ccccc1SC)c1c(C)nn(C)c1Cl [Compound 410] | 3.42^[a]
CCOC(=O)C(C#N)=C(NC(C)c1ccc(Cl)cc1)c1ccsc1Br (stereo not drawn) [Compound 411] | 4.35^[a]
CCOC(=O)C(C#N)=C(Nc1ccccc1SC)c1ccsc1Br [Compound 412] | 3.99^[a]
CCOC(=O)C(C#N)=C(Nc1ccccc1SC)c1cc(C)oc1C [Compound 414] | 3.84^[a]
CCOC(=O)C(C#N)=C(Nc1ccccc1SC(F)(F)C(F)(F)F)c1cc(C)oc1C [Compound 415] | 4.7^[a]
CCOC(=O)C(C#N)=C(Nc1ccccc1SCC(F)(F)F)c1cc(C)oc1C [Compound 416] | 4.3^[a]
CCOC(=O)C(C#N)=C(Nc1ccccc1S(C)(=O)=O)c1cc(C)oc1C [Compound 417] | 2.65^[a]
CCOC(=O)C(C#N)=C(Nc1ccccc1SC(F)(F)C(F)Cl)c1cc(C)oc1C (stereo not drawn) [Compound 418] | 4.25^[a]
CCOC(=O)C(C#N)=C(Nc1ccccc1Sc1ccc(C)cc1)c1cc(C)oc1C [Compound 419] | 5.08^[a]
C=CCSc1ccccc1NC(=C(C#N)C(=O)OCC)c1cc(C)oc1C [Compound 420] | 4.25^[a]
CCOC(=O)C(C#N)=C(Nc1ccccc1SC(C)C)c1cc(C)oc1C [Compound 421] | 4.57^[a]
CCOC(=O)C(C#N)=C(Nc1ccccc1Br)c1cc(C)oc1C [Compound 422] | 3.99^[a]
COC(=O)C(C#N)=C(NC(C)Cc1ccccc1C)c1cccnc1Cl (stereo not drawn) [Compound 423] | 3.23^[a]
COC(=O)C(C#N)=C(NC(C)CCc1ccccc1)c1cccnc1Cl (stereo not drawn) [Compound 424] | 3.27^[a]
COC(=O)C(C#N)=C(NC(C)CCc1cccc(C)c1)c1cccnc1Cl (stereo not drawn) [Compound 425] | 3.68^[a]
COC(=O)C(C#N)=C(NC(C)Cc1ccccc1)c1cccnc1Cl (stereo not drawn) [Compound 426] | 2.98^[a]
COC(=O)C(C#N)=C(NC(C)c1ccc(Cl)cc1)c1sc(C)nc1C(F)(F)F (stereo not drawn) [Compound 427] | 3.98^[a]
COC(=O)C(C#N)=C(Nc1ccccc1SC)c1sc(C)nc1C(F)(F)F [Compound 428] | 3.46^[a]
CCOC(=O)C(C#N)=C(NC(C)c1ccc(Cl)cc1)c1cn(C)nc1C(F)(F)F (stereo not drawn) [Compound 430] | 3.95^[a]
CCOC(=O)C(C#N)=C(Nc1ccccc1SC)c1cn(C)nc1C(F)(F)F [Compound 431] | 3.48^[a]
CCOC(=O)C(C#N)=C(Nc1ccccc1SC)c1sc(C)nc1C(F)(F)F [Compound 432] | 3.8^[a]
CCOC(=O)C(C#N)=C(NC(C)c1ccc(Cl)cc1)c1sc(C)nc1C(F)(F)F (stereo not drawn) [Compound 433] | 4.27^[a]
CCOC(=O)C(C#N)=C(NC(C)c1ccc(Cl)cc1)c1sccc1Cl (stereo not drawn) [Compound 434] | 4.4^[a]
CCOC(=O)C(C#N)=C(Nc1ccccc1SC)c1sccc1Cl [Compound 435] | 3.92^[a]
